Reference: patent publication US20030170642A1, “Identification of cellular targets for biologically active molecules” (IRM, LLC, priority 2001, published 2003)
Read-outs that look alike come from different tables or passages of the source.

What was measured:
NF-κB [1] = experiment: In cellulo competition: over-expression of TNF/NF-κB pathway cDNAs in HEK293 NF-κB reporter cells; conditions: for Effect of over-expressed IKK-beta or NF-κB p65 on the compound's inhibition of the NF-κB reporter: transient over-expression, 1, 2 or 5 mM
Protocol: (§1) HEK293T NF-κB reporter cells were seeded at 7000 cells/well in 384-well plates in triplicate. Eighteen hours later, cells were treated with TNF-alpha (10 ng/mL) in the absence of or presence of 1, 2 or 5 mM sodium salicylate. Cells in other wells were transfected with mammalian expression vectors encoding wild-type human IKK-beta (50 ng) or NF-κB p65 (10 ng) by calcium phosphate. Eight hours post transfection, fresh medium was added with 1, 2 or 5 mM sodium salicylate and incubated for an additional 16 hours. At 24 hours post TNF addition or post transfection, cells were lysed and incubated with Bright-Glo (Promega) and Relative Light Units (RLUs) were determined using the LJL Acquest luminometer.
Screening and Small Complementation: HEK293 NF-κB reporter cells were plated at 7000 cells/well in 384-well Greiner clear bottom plates using a Titertek Multidrop. Cells were incubated for 8 hours before transfection of the cDNA libraries. […] Thirty minutes compound treatment, The Hydra was used again to mix two μL DNA with 8 ul of a premixed solution 61 μl 2m CaC12, 440 μH20 distributed into a 384-well intermediate plate. Then, 10 ul of a 2× Hepes Buffered Saline solution (HBS, pH 7.0) was mixed with the DNA and pipetted automatically for 5 seconds followed by 10 μL addition of the transfection solution to HEK293 NF-κB reporter cells. After transfected plates of cells were incubated at 37° C. for 16 hours, Bright-Glo was added to each well using a twelve-head multi-channel pipettor, incubated for five minutes then read on the LJL Acquest in luminescence mode. Controls used in this experiment were limited to p65, IKK-beta, NIK and IKK-alpha. Additionally, retroviral vectors encoding firefly luciferase alone were plated in 384-wells and transfected into wild-type HEK293 cells to determine transfection efficiency and CVs.
(§2) HEK293 NF-κB reporter cells were plated in 96-well plates at 28,000 cells/well in D'MEM media containing 10% FBS, pen-strep antibiotics and 1 mM glutamine. […] After 24 hours, samples were treated with Bright-Glo and analyzed using the LJL Acquest luminometer.

NF-κB [2] = experiment: HEK293 NF-κB-luciferase reporter gene assay, TNF-alpha stimulation
Protocol: Day 7: HEK293 and Jurkat NF-κB reporter cells were plated and treated with a dose-response of human TNF-alpha for 2 to 24 hours, lysed and treated with Bright-Glo luciferase reagent (Promega) and luminescence measured with the LJL Acquest luminometer.
as §1
Stimulus and detection addition: After 30 minute incubation with compounds, a solution of TNF-alpha (Sigma) diluted to 60 ng/ml and transferred to cells using the Cartesian synQUAD such that 1 μL of stimulus was added per well to a final dilution of approximately 10 ng/ml final. […] Cells were incubated with the Alamar Blue for three hours then read on the LJL Acquest in fluorescence mode at 100,000 us/well. […] Precisely five minutes after addition of Bright-Glo, the cell plate was read in luminescence mode in the LJL Acquest at 100,000 us per well. Wells treated with compounds in which fluorescent signals were >90% of the mean across the plate, and below 50% of the mean across the plate for luminescence were identified and compounds hit picked for future studies. […] IC50 values were also determined in the HEK293 NF-κB reporter gene assay in the same manner.
as §2

NF-κB [3] = conditions: Jurkat reporter cells, stable retroviral over-expression, 1, 2 or 5 mM
Protocol: Alternatively, Jurkat NF-κB reporter cells were seeded at 30,000 cells per/ml in 384-well microtiter plates. Recombinant retroviruses encoding wild-type IKK-beta or NF-κB p65 were generated and used to transduce Jurkat reporter cells. Untransduced cells were treated with 1, 2 or 5 mM salicylate for 30 minutes prior to stimulation with TNF-alpha (10 ng/ml). For transduced cells, 4 hours post retroviral incubation, cells were treated with either 0, 1, 2 or 5 mM salicylic acid.

NF-κB [4] = experiment: Jurkat NF-κB-luciferase reporter cell assay, TNF-alpha stimulation; format: cell-based; conditions: Jurkat reporter cells
Protocol: Alternatively, Jurkat NF-κB reporter cells were seeded at 30,000 cells per/ml in 384-well microtiter plates. Recombinant retroviruses encoding wild-type IKK-beta or NF-κB p65 were generated and used to transduce Jurkat reporter cells. Untransduced cells were treated with 1, 2 or 5 mM salicylate for 30 minutes prior to stimulation with TNF-alpha (10 ng/ml).
Cell Plating: Jurkat NF-κB reporter cells were seeded at 5 μL per well in Greiner 1536-well micro-plates using the Cartesian synQUAD. Settings for the 24,000 step motor were such that a 100 μL syringe would provide a volume per step of 4.2 nL; timing was controlled by a master dispenser solenoids and stepper motors which moved the stage and controlled the syringe pumps. The result was extremely rapid “on-the-fly” dispensing, similar to an inkjet printer. […]
Compound addition: Four Falcon 384-well plates containing compounds (Aldrich) dissolved in dimethylsulfoxide (DMSO) to a final concentration of 1 mM (excepting the last two columns which were just DMSO) were transferred to the Jurkat reporter cells. […] Coefficients of variation (CVs) before and after compound addition was determined by transferring liquid from a FITC solution bath to 384 well plates and read on the LJL Acquest in fluorescence modality.

Question: For `CC(=O)c1c(O)c(C)c(O)c(Cc2c(O)c3c(c(C(=O)/C=C/c4ccccc4)c2O)OC(C)(C)C=C3)c1O` [Rottlerin], which “Block of NF-κB reporter signals induced by TNF or over-expressed TNFR, TRAF2, NIK, IKK-beta, IKK-alpha, p65” value (NF-κB [1]; compound at its IC50 concentration, 24 hours) is on record?
Answer: able to block signals induced by TNF, TNFR, but not TRAF2

Question: And the IC50 (NF-κB [2]; Homo sapiens, HEK293, read-out: IC50 concentration, NF-κB reporter gene assay)?
Answer: 50 nM

Question: Which results are given for `O=C(O)c1ccccc1O` [Salicylate, salicylic acid]?
Answer: Effect of over-expressed IKK-beta or NF-κB p65 on the compound's inhibition of the NF-κB reporter (NF-κB [3]): over-expression of cDNA encoding human IKK-beta diminished the inhibitory effects; Effect of over-expressed IKK-beta or NF-κB p65 on the compound's inhibition of the NF-κB reporter (NF-κB [3]; listed as salicyclic acid): over-expression of IKK-beta, but not NF-κB p65, could titrate out the effect; Effect of over-expressed IKK-beta or NF-κB p65 on the compound's inhibition of the NF-κB reporter (NF-κB [1]): over-expression of cDNA encoding human IKK-beta diminished the inhibitory effects; Effect of over-expressed IKK-beta or NF-κB p65 on the compound's inhibition of the NF-κB reporter (NF-κB [1]; listed as salicyclic acid): over-expression of IKK-beta, but not NF-κB p65, could titrate out the effect; Block of TNF induction of NF-κB reporter (NF-κB [4]; TNF-alpha 10 ng/ml, 1, 2 or 5 mM salicylate): block TNF induction of NF-κB; Block of TNF induction of NF-κB reporter (NF-κB [2]; HEK293 reporter cells, TNF-alpha 10 ng/mL, 1, 2 or 5 mM sodium salicylate): block TNF induction of NF-κB

Question: Which “Induction of NF-κB reporter luciferase” value (NF-κB [4]; dose-response, 2 to 24 hours) does the source give for TNF-alpha here?
Answer: inducible

Question: And the “Induction of NF-κB reporter luciferase” value (NF-κB [2]; HEK293 reporter cells, dose-response, 2 to 24 hours)?
Answer: inducible
